The conditions of series [1]: DMSO solution at room temperature; cited from earlier work.
The conditions of series [2]: humans, rheumatoid arthritis medication; cited from earlier work.
The subject of series [3] is MCF-7 cells. Kind of series: Cell viability assay (PrestoBlue), MCF-7. Type of series: cell-based, human. The settings on record: MCF-7, 72 h. Here is the method: (§1) Cell viability assays were carried out to investigate the anti-proliferative effect of the AGCs. […] Auranofin was used for comparative purposes. […] Cells were incubated with the compounds for 72 hours and viability was assessed with Presto Blue. […] As mentioned before, linkers bring considerable advantages in terms of ADC stability.
(§2) Cell viability analysis for all compounds and AGCs described.
(§3) MCF7, MCF10A and BT-474 were obtained from the American Type Culture Collection (ATCC) (Manassas, Va.) and cultured in Dulbecco's modified Eagle's medium (DMEM) (Mediatech) supplemented with 10% FBS, 1% NEAA and 1% penicillin-streptomycin (MCF7 AND MCF1 OA) or DME HG/F12K, NEAA, 2 mM glutamine, 10% FBS/PS and incubated at 37° C. and 5% CO2 in a humidified incubator.
(§4) After 72 h, cell viability was determined by means of the colorimetric cell viability assay PrestoBlue (Invitrogen, Carlsbad, Calif.) according to the manufacturer's intructions. EC50 were fit using GraphPad Prism 7 to best match the experimental data.
(§5) Tables 3 and Table 4 show EC50 Values (μM) in MCF7, MCF10A and BT474 cell lines determined with [AuCl(PPh3)] (DMF), [Au(mba)(PPh3)]

Series [4] deals with MCF-10A cells. Description: Cell viability assay (PrestoBlue), MCF-10A. Type of series: cell-based, human. The settings on record: MCF-10A non-cancerous breast cell line, 72 h. Here is the method: as §1, §2, §3, §4, §5
For series [5], the system named is BT-474 cells. Kind of series: Cell viability assay (PrestoBlue), BT-474. The class given is cell-based, human. The conditions noted are these: BT-474, 72 h. Here is the method: as §1, §2, §3, §4, §5

Values joined by “and” are separate entries in the source; they are usually repeats but may differ in a detail not shown here. Equal values may be shown once.

On to `CC[P](CC)(CC)=[Au][S][C@@H]1O[C@H](COC(C)=O)[C@@H](OC(C)=O)[C@H](OC(C)=O)[C@H]1OC(C)=O` [AF, [(2R,3R,4S,5R,6S)-3,4,5-tris(acetyloxy)-6-{[(triethyl-λ5-phosphanylidene)aurio]sulfanyl}-oxan-2-yl]methyl acetate], for which the “time stable in solution” value in series [1] was greater than 72 h. Also, the “patients affected by most severe side effects (diarrhea and rashes)” value in series [2] is listed as 26-40%.

The EC50 is the concentration giving half of the maximal effect. A higher EC50 goes with a less potent agent. Take `[Cl][Au].c1ccc(P(c2ccccc2)c2ccccc2)cc1` [[AuCl(PPh3)], reference compound]: the EC50 in series [3] is 3.6 µM and 3.57 µM; in series [4] it was 18.9 ± 1.3 µM; in series [5] it was 3.32 ± 0.1 µM.

As to [Au(mba)(PPh3)] [reference compound], the half-maximal effective concentration (EC50) in series [3] was 2.4 µM and 2.36 µM; in series [4], 5.52 ± 0.36 µM; in series [5] it was 3.51 ± 0.16 µM.
